Test results published in US5637609A, “2-phenylpyrrole derivatives as dopamine D3 receptor antagonists” (SmithKline Beecham plc, priority 1993, dated 1997).
Counter-ions that a name gives are not always drawn.

Target: T1, human D3 dopamine receptors (Homo sapiens, UniProt P35462)
T1 construct: expressed in transfected cells; host or cells: CHO cells
Assay: [125I] iodosulpride displacement binding to cloned human D3 dopamine receptors expressed in CHO cells
Conditions: displacement of 0.1 nM [125I] iodosulpride, CHO cell membranes, 30 min at 37° C.; read-out: IC50 values at the human D3 receptor
Experimental: The inhibition constants (Ki) of test compounds for displacement of [^125 I] iodosulpride binding to human D2 and D3 dopamine receptors expressed in CHO cells have been determined. […] Cultures were grown as monolayers or in suspension in standard cell culture media. Cells were recovered by scraping (from monolayers) or by centrifugation (from suspension cultures), and were washed two or three times by suspension in phosphate buffered saline followed by collection by centrifugation. Cell pellets were stored frozen at -40° C. Crude cell membranes were prepared by homogenisation followed by high-speed centrifugation, and characterisation of cloned receptors achieved by radioligand binding.
Cell pellets were gently thawed at room temperature, and resuspended in about 20 volumes of ice-cold 50 mM Tris salts (pH 7.4@37° C.), 20 mM EDTA, 0.2M sucrose. The suspension was homogenised using an Ultra-Turrax at full speed for 15 sec. The homogenate was centrifuged at 18,000 r.p.m for 20 min at 4° C. in a Sorvall RC5C centrifuge. […] The final pellet was resuspended in 50 mM Tris salts (pH 7.4@37° C.), and the protein content determined using bovine serum albumin as a standard (Bradford, M. M. (1976) Anal. Biochem. 72, 248-254). […]
Competition curves were analysed simultaneously whenever possible using non-linear least-squares fitting procedures, capable of fitting one, two or three site models.

T1 sequence (P35462 whole entry): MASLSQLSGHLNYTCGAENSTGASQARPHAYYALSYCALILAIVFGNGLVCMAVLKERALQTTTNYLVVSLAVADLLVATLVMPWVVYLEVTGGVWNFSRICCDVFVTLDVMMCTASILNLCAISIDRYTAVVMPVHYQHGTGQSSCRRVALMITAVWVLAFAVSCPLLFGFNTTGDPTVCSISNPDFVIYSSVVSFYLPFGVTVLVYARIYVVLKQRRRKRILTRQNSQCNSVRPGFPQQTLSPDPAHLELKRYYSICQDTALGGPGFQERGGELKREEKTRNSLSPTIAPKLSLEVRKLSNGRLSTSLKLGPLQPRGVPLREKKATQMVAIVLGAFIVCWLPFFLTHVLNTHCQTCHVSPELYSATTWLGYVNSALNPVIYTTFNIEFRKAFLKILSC

IC50 [nM]	Compound
< 5	CCN(Cc1ccc(-c2cc(S(=O)(=O)CC)ccc2OC)[nH]1)C1CCCc2ccccc21 (centres unmarked) [Example 1, 2-(5-Ethylsulfonyl-2-methoxyphenyl)-5-[N-ethyl-N-1-(1,2,3,4-tetrahydronaphthyl)aminomethyl]-1H-pyrrole hydrochloride]
< 5	CCN(Cc1ccc(-c2cc(S(=O)(=O)CC)ccc2OC)[nH]1)C1CCc2ccccc21 (centres unmarked) [Example 2, 2-(5-Ethylsulfonyl-2-methoxyphenyl)-5-[N-ethyl-N-1-(indanyl)aminomethyl]-1H-pyrrole, hydrochloride]
